Test results as given in ChEMBL document CHEMBL4428084, “Discovery and Optimization of N-(4-(3-Aminophenyl)thiazol-2-yl)acetamide as a Novel Scaffold Active against Sensitive and Resistant Cancer Cells” (J Med Chem, 2016).
The source made the active and inactive calls. No cut-off for these calls is given here.

How the values were obtained:
[1] = system: A-375; experiment: Inhibition of colony formation in human A375 cells after 10 days by crystal violet staining based assay; type: functional, cell-based
[2] = system: A-375; experiment: Induction of apoptosis in human A375 cells assessed as increase in cleaved PARP expression at 10 uM after 48 hrs in presence of pan-caspase inhibitor QVD by Western blot analysis; type: functional, cell-based
[3] = system: A-375; experiment: Inhibition of colony formation in human A375 cells assessed as induction of less dense colony level at 5 and 10 uM after 10 days by crystal violet staining based assay relative to control; type: functional, cell-based
[4] = system: A-375; experiment: Induction of autophagy in human A375 cells assessed as increase in LC3B-2 expression at 10 uM after 48 hrs in presence of LC3 siRNA by Western blot analysis; type: functional, cell-based
[5] = system: K562; experiment: Cytotoxicity against imatinib-sensitive human K562 cells assessed as cell viability at 10 uM after 48 hrs by trypan blue exclusion assay relative to control; type: functional; settings: K562, 48 h, read-out: Activity
[6] = Cytotoxicity against vemurafenib-resistant human A375 R5C3 cells assessed as reduction in cell viability after 48 hrs by trypan blue exclusion assay; type: functional, cell-based; settings: A-375, 48 h
[7] = Toxicity in mouse assessed as behavioral modification at 1 mg/kg, iv; type: organism-based; settings: in vivo
[8] = system: A-375; experiment: Cytotoxicity against vemurafenib-sensitive human A375 cells assessed as reduction in cell viability after 48 hrs by trypan blue exclusion assay; type: functional, cell-based; settings: A-375, 48 h
[9] = Toxicity in nude Balb/c mouse xenografted with human A375 cells assessed as effect on body mass at 0.7 mg/kg/day, ip; type: organism-based; settings: in vivo
[10] = system: A-375; experiment: Inhibition of colony formation in human A375 cells at 10 uM after 10 days by crystal violet staining based assay relative to control; type: functional; settings: A-375, 240 h
[11] = system: A-375; experiment: Induction of apoptosis in human A375 cells xenografted in immuno-deficient nude Balb/c mouse assessed as increase in cleaved PARP expression in tumor at 0.7 mg/kg/day, ip measured on day 31 post treatment by Western blot analysis; type: functional, organism-based
[12] = system: A-375; experiment: Cytotoxicity against vemurafenib-sensitive human A375 cells assessed as cell viability at 5 uM after 48 hrs by trypan blue exclusion assay relative to control; type: functional; settings: A-375, 48 h, read-out: Activity
[13] = system: A-375; experiment: Cytotoxicity against human A375 cells assessed as reduction in cell viability at 10 uM after 48 hrs in presence of pan-caspase inhibitor QVD/LC3 siRNA by trypan blue exclusion assay; type: functional, cell-based
[14] = system: A-375; experiment: Induction of apoptosis in human A375 cells assessed as cells with active caspase-3 at 10 uM after 48 hrs by flow cytometry (reference value: 4.16%); type: functional
[15] = system: K562; experiment: Cytotoxicity against imatinib-resistant human K562 cells assessed as cell viability at 10 uM after 48 hrs by trypan blue exclusion assay relative to control; type: functional; settings: K562, 48 h, read-out: Activity
[16] = system: K562; experiment: Cytotoxicity against imatinib-resistant human K562 cells assessed as reduction in cell viability after 48 hrs by trypan blue exclusion assay; type: functional, cell-based; settings: K562, 48 h
[17] = Half life in mouse liver microsomes at 37 degC; type: ADME, Microsome
[18] = Cytotoxicity against vemurafenib-resistant human A375 R5C3 cells assessed as cell viability at 1 uM after 48 hrs by trypan blue exclusion assay relative to control; type: functional; settings: A-375, 48 h, read-out: Activity
[19] = Cytotoxicity against vemurafenib-resistant human A375 RIV cells assessed as cell viability at 5 uM after 48 hrs by trypan blue exclusion assay relative to control; type: functional; settings: A-375, 48 h, read-out: Activity
[20] = Cytotoxicity against vemurafenib-resistant human A375 R5C3 cells assessed as cell viability at 10 uM after 48 hrs by trypan blue exclusion assay relative to control; type: functional; settings: A-375, 48 h, read-out: Activity
[21] = system: A-375; experiment: Induction of autophagy in human A375 cells assessed as increase in LC3-1 to LC3-2 conversion at 10 uM after 24 hrs by Western blot analysis; type: functional, cell-based
[22] = system: A-375; experiment: Cytotoxicity against vemurafenib-sensitive human A375 cells assessed as cell viability at 10 uM after 48 hrs by trypan blue exclusion assay relative to control; type: functional; settings: A-375, 48 h, read-out: Activity
[23] = Volume of distribution in mouse at 1 mg/kg, iv measured 2 hrs post dose; type: ADME, organism-based; settings: in vivo
[24] = system: K562; experiment: Cytotoxicity against imatinib-sensitive human K562 cells assessed as reduction in cell viability after 48 hrs by trypan blue exclusion assay; type: functional, cell-based; settings: K562, 48 h
[25] = Toxicity in nude Balb/c mouse xenografted with human A375 cells assessed as diet disturbance at 0.7 mg/kg/day, ip; type: organism-based; settings: in vivo
[26] = Cytotoxicity against human keratinocytes assessed as cell viability at 5 uM after 48 hrs by trypan blue exclusion assay relative to control; type: cell-based, Keratinocyte; settings: read-out: Activity
[27] = system: A-375; experiment: Antitumor activity against human A375 cells xenografted in immuno-deficient nude Balb/c mouse assessed as tumor growth inhibition at 0.7 mg/kg/day, ip measured on day 31 post treatment; type: functional, organism-based
[28] = Cytotoxicity against vemurafenib-resistant human A375 RIV cells assessed as cell viability at 10 uM after 48 hrs by trypan blue exclusion assay relative to control; type: functional; settings: A-375, 48 h, read-out: Activity
[29] = Cytotoxicity against vemurafenib-resistant human A375 RIV cells assessed as reduction in cell viability after 48 hrs by trypan blue exclusion assay; type: functional, cell-based; settings: A-375, 48 h
[30] = system: A-375; experiment: Inhibition of colony formation in human A375 cells at 5 uM after 10 days by crystal violet staining based assay relative to control; type: functional; settings: A-375, 240 h
[31] = system: A-375; experiment: Induction of autophagy in human A375 cells xenografted in immuno-deficient nude Balb/c mouse assessed as increase in LC3-2 expression in tumor at 0.7 mg/kg/day, ip measured on day 31 post treatment by Western blot analysis; type: functional, organism-based
[32] = Terminal half life in mouse at 1 mg/kg, iv; type: ADME, organism-based; settings: in vivo, read-out: beta t1/2
[33] = Cytotoxicity against human keratinocytes assessed as cell viability at 10 uM after 48 hrs by trypan blue exclusion assay relative to control; type: cell-based, Keratinocyte; settings: read-out: Activity
[34] = system: BXPC-3; experiment: Cytotoxicity against gemcitabine-sensitive human BxPC3 cells assessed as cell viability at 10 uM after 48 hrs by trypan blue exclusion assay relative to control; type: functional; settings: BXPC-3, 48 h, read-out: Activity
[35] = system: BXPC-3; experiment: Cytotoxicity against gemcitabine-sensitive human BxPC3 cells assessed as reduction in cell viability after 48 hrs by trypan blue exclusion assay; type: functional, cell-based; settings: BXPC-3, 48 h
[36] = AUC (0 to 2 hrs) in mouse at 1 mg/kg, iv; type: ADME, organism-based; design: dose 1 mg/kg, time < 2 hr, route intravenous; settings: in vivo
[37] = Toxicity in nude Balb/c mouse xenografted with human A375 cells assessed as behavioral modification at 0.7 mg/kg/day, ip; type: organism-based; settings: in vivo
[38] = Cytotoxicity against vemurafenib-resistant human A375 RIV cells assessed as cell viability at 1 uM after 48 hrs by trypan blue exclusion assay relative to control; type: functional; settings: A-375, 48 h, read-out: Activity
[39] = system: A-375; experiment: Induction of apoptosis in human A375 cells assessed as increase in cleaved PARP expression at 10 uM after 24 hrs by Western blot analysis; type: functional, cell-based
[40] = Cytotoxicity against human fibroblasts assessed as cell viability at 5 uM after 48 hrs by trypan blue exclusion assay relative to control; type: cell-based, Fibroblast; settings: read-out: Activity
[41] = system: MIA PaCa-2; experiment: Cytotoxicity against gemcitabine-resistant human MIAPaCa2 cells assessed as reduction in cell viability after 48 hrs by trypan blue exclusion assay; type: functional, cell-based; settings: MIA PaCa-2, 48 h
[42] = Total clearance in mouse at 1 mg/kg, iv measured 2 hrs post dose; type: ADME, organism-based; settings: in vivo
[43] = system: A-375; experiment: Induction of autophagy in human A375 cells assessed as increase in LC3-2 expression at 10 uM after 12 hrs by Hoechst staining based immunofluorescence method; type: functional, cell-based
[44] = Cytotoxicity against human fibroblasts assessed as cell viability at 10 uM after 48 hrs by trypan blue exclusion assay relative to control; type: cell-based, Fibroblast; settings: read-out: Activity
[45] = system: MIA PaCa-2; experiment: Cytotoxicity against gemcitabine-resistant human MIAPaCa2 cells assessed as cell viability at 10 uM after 48 hrs by trypan blue exclusion assay relative to control; type: functional; settings: MIA PaCa-2, 48 h, read-out: Activity

CCCCCCC#Cc1ccc(S(=O)(=O)Nc2cccc(-c3csc(NC(C)=O)n3)c2)cc1
inhibition [1]: Dose-dependent effect | Activity [2]: inactive | inhibition [3]: Active | Activity [4]: inactive | viability at 10 µM [5]: 0.6% | EC50 [6]: 1320 nM | Activity [7]: Non-Toxic | EC50 [8]: 560 nM | Activity [9]: Non-Toxic | inhibition at 10 µM [10]: 94% | Activity [11]: Active | viability at 5 µM [12]: < 1% | Activity [13]: inactive | Activity [14]: 48 - 48.4% | viability at 10 µM [15]: 3.4% | EC50 [16]: 1620 nM | half-life [17]: > 45 min | viability at 1 µM [18]: 83% | viability at 5 µM [19]: 0.3% | viability at 10 µM [20]: < 1% | Activity [21]: Active | viability at 10 µM [22]: < 1% | Vd [23]: 2.91 L/kg | EC50 [24]: 1420 nM | Activity [25]: Non-Toxic | viability at 48 h, 5 µM [26]: 91.2% | TGI [27]: Active | viability at 10 µM [28]: < 1% | EC50 [29]: 480 nM | inhibition at 5 µM [30]: 77% | Activity [31]: Active | half-life [32]: 47 min | viability at 48 h, 10 µM [33]: 93.4% | viability at 10 µM [34]: < 1% | EC50 [35]: 380 nM | AUC(0-t) at 2 h [36]: 389 ng·h/mL | Activity [37]: Non-Toxic | viability at 1 µM [38]: 12% | Activity [39]: Active | viability at 48 h, 5 µM [40]: 91.5% | EC50 [41]: 640 nM | clearance [42]: 43 mL/min/kg | Activity [43]: Active | viability at 48 h, 10 µM [44]: 85.1% | viability at 10 µM [45]: < 1%
